# System: corneal endothelial cells
# Test: Post-thaw quality of pig corneal endothelium after ultra-fast cooling, with or without DMSO in DMEM
# Type: cell-based
# Details: pig corneal pieces cooled to -196 degrees C by liquid nitrogen blade jet, thawed under 37 degrees C water jet
# Text: Small samples excised from pig corneas were cooled from room temperature (ambient) to −196 degrees C. using an ultra-fast cooling system of the present invention that contains a single liquid nitrogen blade jet and two gas nitrogen blade jets. Pig corneas were processed and cut into approx. 0.5 cm×0.5 cm×0.5 cm pieces, and each piece maintains a full layer of endothelium, i.e., a single layer of corneal endothelial cells of approximately 10 microns in size, on one surface. The tissues are first placed in standard holding media, Dulbecco's Modified Eagle Media (DMEM), at 4 degrees C. A sample holder was made with a holding cavity of 0.5 cm in depth and with a 20 microns thick sheet of stainless steel as its cover sheet. […] The corneal endothelium of each tissue faced to the cover sheet and directly contacted its inner surface, to achieve maximum cooling rate possibly provided by the liquid nitrogen jet for the endothelium and prevent exposure of the cells to liquid nitrogen flows. […] The post-thaw quality of the corneal endothelia was evaluated by quantification of endothelial cell number based on differential interference contrast light microscopy. The cell health was assessed by using cell circularity as a surrogate marker using differential interference contrast light microscopy. […]
smiles,measurement,setting,value
"C[S+](C)[O-] [DMSO, dimethyl sulfoxide]","post-thaw endothelial cell viability (cell count vs fresh tissue, FIG. 19D)",10% DMSO in DMEM,comparable to readings of the fresh corneas
same,"post-thaw endothelial cell viability (cell count vs fresh tissue, FIG. 19D)",20% DMSO in DMEM,impacted the cell viability due to toxicity

# — patent US20210144990A1, “IMPROVED ULTRA-FAST COOLING SYSTEM AND METHODS OF USE” (priority 2018, published 2021)
